A short description of the data set: solubility of oAB in water depending on the pH. In kind it is physicochemical. Particulars: plasma or biological fluid; pH between 3.0 and 4.0; fermentation broth; read-out: oAB remaining dissolved at the solubility minimum.

Values after ≈ are worked out from the molar mass of the structure shown.

Turning to `Nc1ccccc1C(=O)O` [oAB, 2-aminobenzoic acid], the solubility is approximately 5000 µg/mL (≈ 36.5 mM).

What is called solubility is the concentration that dissolves in the medium under given conditions.

For the origin of these results see patent US11155844B2, “Process for the production of ortho-aminobenzoic acid and/or aniline from fermentable substrate using recombinant yeast” (Covestro Deutschland AG, priority 2015, dated 2021).
